What was measured:
HepG2 cells [1] = assay: Annexin V-FITC/PI staining apoptosis assay by flow cytometry, with 8 Gy radiation; format: cell-based, human
From the text: Annexin V is a 35-36 kDa Ca2+ dependent phospholipid-binding protein that has a high affinity for the membrane phospholipid phosphatidylserine (PS), and binds to cells with exposed PS. Since externalization of PS occurs in the earlier stages of apoptosis, Annexin V staining can identify apoptosis at an earlier stage than assays based on nuclear changes such as DNA fragmentation. A vital dye such as propidium iodide (PI) is typically used in conjunction with Annexin V to identify the viability of the cells. For example, cells that are considered viable are Annexin V and PI negative; cells that are in early apoptosis are Annexin V positive and PI negative; and cells that are in late apoptosis or already dead are both Annexin V and PI positive, wherein the membranes of dead and damaged cells are permeable to PI. The Annexin V staining assay was performed by Annexin V-FITC-Kit purchased from Beckman Coulter, Inc (U.S.A). The protocol was conducted according to the manufacturing manuscript.
HepG2 cells were seeded in 6-cm dish (2.5×10^5 cells/dish) for 24 hours of incubation. Various concentration of ES800 (40 or 80 μg/ml) were added into the culture medium, and then incubated for another 24 hours, wherein 0.008% DMSO was added to the control group. The cells were exposed at 8 Gy of radiation (Linear accelerator, Philips SL-18), and incubated for another 48 hours. After collection, the cells were washed by pre-cold PBS and centrifuged at 500×g. The supernatant was removed and the cells were re-suspended with binding buffer. 1 μl Annexin V-FITC solution and 5 μl PI solution were added into the cell suspension and reacted away from light on ice for 15 min. Finally, 400 μl pre-cold binding buffer was added and the samples were analyzed by flow cytometer within 30 min. The percentages of Annexin V^+ and PI^+/− double staining cells were plotted in FIG. 2.
HepG2 cells were seeded in 6-well plate (2.5×10^5 cells/well) for 24 hours of incubation. Various concentrations of ES800 (40 or 80 μg/ml) and Schisandrin B (12 or 24 μg/ml) were added into the culture medium, and then incubated for another 2 hours, wherein control group was added 0.008% DMSO. The cells were exposed at 8 Gy of radiation (Linear accelerator, Philips SL-18), and incubated for another 70 hours. After collection, the cells were washed by pre-cold PBS and centrifuged at 500×g. Following removing the supernatant, the cells were suspended with binding buffer. 1 μl Annexin V-FITC solution and 5 μl PI solution were added into the suspension and the mixture was reacted away from light on ice for 15 min. Finally, 400 μl pre-cold binding buffer was added and the samples were analyzed by flow cytometer within 30 min. The percentages of Annexin V^+ and PI^+/− double staining cells were plotted in FIG. 7.

HepG2 cells [2] = assay: Western blot of apoptosis-related proteins (Bcl-2, p21, caspase 9 cleaved form, caspase 3 cleaved form); format: cell-based, human; conditions: 12 μg/ml in combination with 8 Gy
Description: HepG2 cells were seeded in 6-cm dish (2.5×10^5 cells/dish) for 24 hours of incubation. […] The cells were exposed at 8Gy of radiation (Linear accelerator, Philips SL-18), and incubated for another 48 hours. After collection, the cells were washed by PBS for three times, and then centrifuged at 360×g for 5 min. After removing the supernatant, 120 μl CelLytic-M (Sigma) and 1 μl Protease Inhibitor Cocktail (Sigma) were added into the pellet to suspend the cells and then the suspension was incubated at 4° C. for 30 min. The total protein was collected from the supernatant by centrifugation at 27210×g for 10 min.
[…] protein was loaded to run an SDS-PAGE. The gel was then transferred to PVDF and immersed into TTBS solution (2.42 g Tris base/8 g NaCl/0.1% Tween-20/per liter) containing 5% […] milk for blocking. The membrane was reacted with each primary antibody against p21, Bcl-2, caspase 9 (cleaved form), caspase 3 (cleaved form) and β-actin overnight at 4° C. After the reaction, the membrane was washed by TTBS solution three times, and then reacted with appropriate secondary antibody for another 30-min incubation. […] The bands were quantified by GE ImageMaster 2D Platinum Software. […]
The expression level of apoptosis protein in HepG2 was also detected by western blot. […]

## COc1cc2c(c(OC)c1OC)-c1c(cc3c(c1OC)OCO3)CC(C)C(C)C2 (centres unmarked) [Schisandrin B]
HepG2 cells [1]; 24 μg/ml in combination with 8 Gy, 2 h pre-incubation, 70 h after radiation
  apoptosis ratio of HepG2, compared with radiation of 8 Gy alone (FIG. 7): significantly higher
HepG2 cells [1]; 12 or 24 μg/ml in combination with 8 Gy, 2 h pre-incubation, 70 h after radiation
  apoptosis ratio of HepG2, compared with the control group (FIG. 7): significantly higher
HepG2 cells [1]; 12 or 24 μg/ml without exposure of radiation
  effect on the apoptosis of cancer cells (FIG. 7): no effect
HepG2 cells [1]; Schisandrin B in combination of radiation therapy
  effect in inhibition of the growth of cancer cells, compared with radiation therapy alone (FIG. 7): enhanced effect
HepG2 cells [2]
  expression level of caspase 3 (cleaved form), compared with radiation alone (FIG. 8): significantly higher
